According to patent publication US20260217863A1, “ANTIBODY OR PEPTIDE BINDING SPECIFICALLY TO RNASE A, IMMUNOASSAY DEVICE AND METHOD FOR DETECTING RNASE A, AND METHOD FOR COLLECTING RNASE A” (UIF (University Industry Foundation), Yonsei University, priority 2022, published 2026):
Where no end group is shown, it is not given here.

biological target: T1, RNase A (Bos taurus, UniProt P61823); experiment: RNA cleavage assay with total RNA from HeLa cells, agarose gel imaging; assay type: biochemical, bovine; design: Ribonuclease A (Type II-A) from bovine pancreas; purchased Sigma-Aldrich Korea; host or cells: bovine pancreas; conditions: RNase 0.7 μg/ml, agarose gel image analysis, read-out: IC50 for RNase A activity inhibition
T1 sequence (P61823 27-150): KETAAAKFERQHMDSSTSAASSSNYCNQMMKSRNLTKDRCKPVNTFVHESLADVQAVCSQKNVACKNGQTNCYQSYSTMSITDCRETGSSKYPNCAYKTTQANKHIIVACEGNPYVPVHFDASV
Description: The analysis of RNase inhibitory activity of Fv antibodies and synthetic peptides was performed using RNA samples extracted from HeLa cells as follows: (1) Mixing the RNA sample extracted from HeLa cells (600 ng) with 87.5 nM-5.6 μM under conditions of 37° C. for 30 minutes, (2) Electrophoresis on a 1% agarose gel at 90 V for 40 minutes. The estimation of RNase inhibitory activity was carried out by gel imaging of the cleaved RNA using a ChemiDoc XPS (Bio-Rad, CA, USA).
(§1) Using RNA samples extracted from HeLa cells, the RNase inhibitory activity of the synthesized peptides was estimated. The RNase inhibitory activity was assessed using agarose gel imaging of the cleaved RNA. To optimize the RNase concentration for the RNase inhibition assay, total RNA was treated with RNase A (600 ng), with RNase A concentrations ranging from 5.7 ng/ml to 3.6 μg/ml, and the cleaved RNA bands were observed after treatment with ETBR (ethidium bromide). […] The RNase concentration for inhibition analysis was determined to be 0.7 μg/ml, with RNase concentrations above 3.6 μg/ml. The inhibition analysis was performed by mixing total RNA from HeLa cells with RNase (0.7 μg/ml) and Fv-antibody at a concentration of 10 μM, resulting in the observation that the entire RNA was completely cleaved into small RNA bands in the absence of the Fv-antibody. […] The optimal concentration of the Fv-antibody for RNase inhibition was determined by the cleavage reaction with total RNA in the concentration range of 87.5 nM to 5.6 μM for Fv-antibodies (Fv-1, Fv-2, Fv-3).
The analysis of RNase inhibitory activity of Fv antibodies and synthetic peptides was performed using RNA samples extracted from HeLa cells as follows: (1) A mixture of RNA samples extracted from HeLa cells (600 ng) was prepared at concentrations of 87.5 nM-5.6 μM and incubated at 37° C. for 30 minutes; (2) Electrophoresis was conducted in a 1% agarose gel under 90 V for 40 minutes. The estimation of RNase inhibitory activity was carried out by gel imaging of the cleaved RNA using a ChemiDoc XPS (Bio-Rad, CA, USA).
as §1, with “the” for “the concentration”

IC50 [nM]	Sequence
995	CGPDSDVMTDF [Peptide-1]
464	DGTAKKSRKDD [Peptide-3]

Sequence	IC50 [nM]
YGPVGRVKRDD [Peptide-2]	658
